Data: patent US20110166192A1, “PROCESS FOR CHARGING A POLYMERIC PRODUCT WITH ATTRIBUTE IMPARTING AGENT(S)” (ADITYA BIRLA SCIENCE & TECHNOLOGY CO. LTD., priority 2008, published 2011)

Tested on: Staphylococcus Aureus bacteria strain ATCC 6538
Assay: Sustained/control release of anti-bacterial agent from the polymeric product at various temperatures, AATCC 147 zone of inhibition (FIG. 2)
Type: cell-based
Details: polymeric product containing reservoir (melting range of 35-65° C.) with triclosan, 24 hr contact time
Experimental: The activity of an anti-bacterial agent in the polymeric product was conducted by Qualitative AATCC 147 method. The test was conducted with Staphylococcus Aureus bacteria strain ATCC 6538. Observation of growth under the specimen accompanied with no zone of inhibition was considered as No (i.e. failed test with no anti-bacterial activity) and no growth under the specimen, with or without zone of inhibition was considered as Yes (passed test with anti-bacterial activity).
Also the polymeric product containing reservoir (melting range of 35-65° C.) was incorporated with triclosan as anti-bacterial ingredient. The product was washed and dried at ambient temperature of 20° C. after which the fabric was maintained at said temperature for 30 minutes and measured for efficacy. Anti-bacterial analysis was done based on AATCC 147 with 24 hr contact time and the zone of inhibition (in mm) was measured. The sustained/control release of an anti-bacterial agent in the polymeric product was studied at various temperatures. The results are displaced in FIG. 2 of accompanying drawings.

**Q.** How did the “release profile of anti-bacterial agent (zone of inhibition)” value turn out when Oc1cc(Cl)ccc1Oc1ccc(Cl)cc1Cl [triclosan, 5-chloro-2-(2,4-dichlorophenoxy)phenol] was run?
**A.** sustained/control release profile with temperature
